{"source": "PubChem BioAssay AID2060333", "about": "(Molecular Pharmacology Branch, DTP, NCI, 2025)", "system": "845751-090-R-J2-PDC tumor spheroid viability", "assay": "Anticancer human tumor 845751-090-R-J2-PDC patient-derived head and neck squamous carcinoma cell line growth inhibition [IpAb]", "details": "spheroids with HUVEC and MSC; for IC50: curve of first compound; for viability, T/C: stronger effect = lower value", "how_it_was_run": "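Combinations with ipatasertib or abemaciclib were tested on tumour spheroids holding HUVEC (25%) and MSC (15%) alongside 60% malignant cells. Top concentration was at or near clinical Cmax (10 microM if undefined), descending in half-log steps.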", "data": [{"molecule": "Cn1cnc2c(F)c(Nc3ccc(Br)cc3Cl)c(C(=O)NOCCO)cc21", "note": "+ CCN1CCN(Cc2ccc(Nc3ncc(F)c(-c4cc(F)c5nc(C)n(C(C)C)c5c4)n3)nc2)CC1;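 note: spheroids exposed to compounds for 7 days before readout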;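 for viability, T/C: CTG3D luminescence normalised so that 100% = DMSO vehicle control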", "values": [{"measurement": "IC50", "setting": "second compound 0.01 µM", "value": "> 3", "unit": "µM"}, {"measurement": "IC50", "setting": "second compound 0.0316 µM", "value": "> 3", "unit": "µM"}, {"measurement": "IC50", "setting": "second compound 0.1 µM", "value": "> 3", "unit": "µM"}, {"measurement": "IC50", "setting": "second compound 0.316 µM", "value": "> 3", "unit": "µM"}, {"measurement": "IC50", "setting": "second compound 1 µM", "value": "> 3", "unit": "µM"}, {"measurement": "viability, T/C", "setting": "second compound 0.01 µM, first compound 0.00949 µM", "value": 198, "unit": "%"}, {"measurement": "viability, T/C", "setting": "second compound 0.01 µM, first compound 0.03 µM", "value": 194, "unit": "%"}, {"measurement": "viability, T/C", "setting": "second compound 0.01 µM, first compound 0.0949 µM", "value": 139, "unit": "%"}, {"measurement": "viability, T/C", "setting": "second compound 0.01 µM, first compound 0.3 µM", "value": 129, "unit": "%"}, {"measurement": "viability, T/C", "setting": "second compound 0.01 µM, first compound 0.949 µM", "value": 109, "unit": "%"}, {"measurement": "viability, T/C", "setting": "second compound 0.01 µM, first compound 3 µM", "value": 69.8, "unit": "%"}, {"measurement": "viability, T/C", "setting": "second compound 0.0316 µM, first compound 0.00949 µM", "value": 171, "unit": "%"}, {"measurement": "viability, T/C", "setting": "second compound 0.0316 µM, first compound 0.03 µM", "value": 148, "unit": "%"}, {"measurement": "viability, T/C", "setting": "second compound 0.0316 µM, first compound 0.0949 µM", "value": 125, "unit": "%"}, {"measurement": "viability, T/C", "setting": "second compound 0.0316 µM, first compound 0.3 µM", "value": 107, "unit": "%"}, {"measurement": "viability, T/C", "setting": "second compound 0.0316 µM, first compound 0.949 µM", "value": 89.3, "unit": "%"}, {"measurement": "viability, T/C", "setting": "second compound 0.0316 µM, first compound 3 µM", "value": 71.5, "unit": "%"}, {"measurement": "viability, T/C", "setting": "second compound 0.1 µM, first compound 0.00949 µM", "value": 147, "unit": "%"}, {"measurement": "viability, T/C", "setting": "second compound 0.1 µM, first compound 0.03 µM", "value": 137, "unit": "%"}, {"measurement": "viability, T/C", "setting": "second compound 0.1 µM, first compound 0.0949 µM", "value": 135, "unit": "%"}, {"measurement": "viability, T/C", "setting": "second compound 0.1 µM, first compound 0.3 µM", "value": 106, "unit": "%"}, {"measurement": "viability, T/C", "setting": "second compound 0.1 µM, first compound 0.949 µM", "value": 82.3, "unit": "%"}, {"measurement": "viability, T/C", "setting": "second compound 0.1 µM, first compound 3 µM", "value": 63.8, "unit": "%"}, {"measurement": "viability, T/C", "setting": "second compound 0.316 µM, first compound 0.00949 µM", "value": 163, "unit": "%"}, {"measurement": "viability, T/C", "setting": "second compound 0.316 µM, first compound 0.03 µM", "value": 150, "unit": "%"}, {"measurement": "viability, T/C", "setting": "second compound 0.316 µM, first compound 0.0949 µM", "value": 136, "unit": "%"}, {"measurement": "viability, T/C", "setting": "second compound 0.316 µM, first compound 0.3 µM", "value": 128, "unit": "%"}, {"measurement": "viability, T/C", "setting": "second compound 0.316 µM, first compound 0.949 µM", "value": 101, "unit": "%"}, {"measurement": "viability, T/C", "setting": "second compound 0.316 µM, first compound 3 µM", "value": 97.2, "unit": "%"}, {"measurement": "viability, T/C", "setting": "second compound 1 µM, first compound 0.00949 µM", "value": 159, "unit": "%"}, {"measurement": "viability, T/C", "setting": "second compound 1 µM, first compound 0.03 µM", "value": 167, "unit": "%"}, {"measurement": "viability, T/C", "setting": "second compound 1 µM, first compound 0.0949 µM", "value": 138, "unit": "%"}, {"measurement": "viability, T/C", "setting": "second compound 1 µM, first compound 0.3 µM", "value": 114, "unit": "%"}, {"measurement": "viability, T/C", "setting": "second compound 1 µM, first compound 0.949 µM", "value": 107, "unit": "%"}, {"measurement": "viability, T/C", "setting": "second compound 1 µM, first compound 3 µM", "value": 64, "unit": "%"}]}]}
